Reference: ChEMBL document CHEMBL5050844 (2019)

Assays:
Assay type in all cases: functional, T cell line
[1] = Induction of anti-CD3 antibodies-stimulated human T cell activation at 1 uM assessed fold increase in IL-2 secretion measured by ELISA assay
[2] = Induction of anti-CD3 antibodies-stimulated human T cell activation at 8 uM assessed fold increase in CD25 expression measured by ELISA assay
[3] = Induction of anti-CD3/CD28 antibodies-stimulated human T cell activation at 4 uM assessed fold increase in IL-2 secretion measured by ELISA assay
[4] = Induction of anti-CD3 antibodies-stimulated human T cell activation at 1 uM assessed fold increase in CD25 expression measured by ELISA assay
[5] = Induction of anti-CD3/CD28 antibodies-stimulated human T cell activation at 1 uM assessed fold increase in CD25 expression measured by ELISA assay
[6] = Induction of anti-CD3/CD28 antibodies-stimulated human T cell activation at 0.3 uM assessed fold increase in IL-2 secretion measured by ELISA assay
[7] = Induction of anti-CD3 antibodies-stimulated human T cell activation at 8 uM assessed fold increase in IL-2 secretion measured by ELISA assay
[8] = Induction of anti-CD3/CD28 antibodies-stimulated human T cell activation at 0.3 uM assessed fold increase in CD25 expression measured by ELISA assay
[9] = Induction of anti-CD3/CD28 antibodies-stimulated human T cell activation at 1 uM assessed fold increase in IL-2 secretion measured by ELISA assay
[10] = Induction of anti-CD3/CD28 antibodies-stimulated human T cell activation at 4 uM assessed fold increase in CD25 expression measured by ELISA assay

In the case of `C[C@H](Sc1nncn1C)c1cccc(NC(=O)c2ccnc(C(F)(F)F)n2)c1`, the “fold change (FC)” value [1] is reported as “<=0.05”, the “fold change (FC)” value [2] is reported as 0.801 and the “fold change (FC)” value [3] is reported as 1.01. For the same molecule, the “fold change (FC)” value [4] was 0.601, the “fold change (FC)” value [5] was 1.01 and the “fold change (FC)” value [6] was 1.01. The “fold change (FC)” value [7] was 0.051, the “fold change (FC)” value [8] was 1.01 and the “fold change (FC)” value [9] was 1.01. The “fold change (FC)” value [10] was 1.01.
In the case of `CC(C)c1cccc(C(=O)Nc2cccc([C@H](C)Sc3nncn3C)c2)n1`, the “fold change (FC)” value [1] is reported as “<=0.05”, the “fold change (FC)” value [2] is reported as 0.801 and the “fold change (FC)” value [3] is reported as “>=7.5”. For the same molecule, the “fold change (FC)” value [4] was “<=0.6”, the “fold change (FC)” value [5] was 1.01 and the “fold change (FC)” value [6] was 2.51. The “fold change (FC)” value [7] was “<=0.05”, the “fold change (FC)” value [8] was 1.01 and the “fold change (FC)” value [9] was 2.51. For the same molecule, the “fold change (FC)” value [10] was 1.01.
With `Cc1conc1CC(C)c1cccc(N2Cc3c(cccc3C(F)(F)F)C2=O)c1` (stereo not given) the “fold change (FC)” value [1] was “<=0.05”, the “fold change (FC)” value [2] was 0.801 and the “fold change (FC)” value [3] was 1.01. The “fold change (FC)” value [4] was 0.601, the “fold change (FC)” value [5] was 1.01 and the “fold change (FC)” value [6] was 1.01. For the same molecule, the “fold change (FC)” value [7] was 0.051, the “fold change (FC)” value [8] was 1.01 and the “fold change (FC)” value [9] was 1.01. The “fold change (FC)” value [10] was 1.01.
For `C[C@H](Cc1nncn1C)c1cccc(NC(=O)c2cc(C(=O)N3C[C@@H](O)[C@H](F)C3)ccn2)c1`, the “fold change (FC)” value [1] was 0.151, the “fold change (FC)” value [2] was 0.801 and the “fold change (FC)” value [3] was 2.51. The “fold change (FC)” value [4] was 0.601, the “fold change (FC)” value [5] was 1.01 and the “fold change (FC)” value [6] was “<=1”. For the same molecule, the “fold change (FC)” value [7] was “>=0.201”, the “fold change (FC)” value [8] was “<=1” and the “fold change (FC)” value [9] was 1.01. For the same molecule, the “fold change (FC)” value [10] was 1.31.
In the case of `Cc1cc(C(=O)Nc2cccc([C@H](C)Cc3nncn3C)c2)nc2ccnn12`, the “fold change (FC)” value [1] is reported as 0.101, the “fold change (FC)” value [2] is reported as “>=1.001” and the “fold change (FC)” value [3] is reported as 5. The “fold change (FC)” value [4] was 0.601, the “fold change (FC)” value [5] was 1.01 and the “fold change (FC)” value [6] was 1.01. For the same molecule, the “fold change (FC)” value [7] was “>=0.201”, the “fold change (FC)” value [8] was 1.01 and the “fold change (FC)” value [9] was 1.01. For the same molecule, the “fold change (FC)” value [10] was 1.31.
For `Cn1cnnc1C(F)(F)C(C)(F)c1cccc(N2Cc3c(cccc3C(F)(F)F)C2=O)c1` (racemic), the “fold change (FC)” value [1] was “>=0.201”, the “fold change (FC)” value [2] was 0.601 and the “fold change (FC)” value [3] was 1.01. For the same molecule, the “fold change (FC)” value [4] was 0.601, the “fold change (FC)” value [5] was 1.01 and the “fold change (FC)” value [6] was “<=1”. The “fold change (FC)” value [7] was “>=0.201”, the “fold change (FC)” value [8] was 1.01 and the “fold change (FC)” value [9] was “<=1”. For the same molecule, the “fold change (FC)” value [10] was 1.01.
In the case of `C[C@H](Sc1nncn1C)c1cccc(NC(=O)c2cc3ccccc3cn2)c1`, the “fold change (FC)” value [1] is reported as “<=0.05”, the “fold change (FC)” value [2] is reported as “<=0.6” and the “fold change (FC)” value [3] is reported as 1.01. The “fold change (FC)” value [4] was “<=0.6”, the “fold change (FC)” value [5] was 1.01 and the “fold change (FC)” value [6] was 1.01. The “fold change (FC)” value [7] was 0.051, the “fold change (FC)” value [8] was 1.01 and the “fold change (FC)” value [9] was 1.01. For the same molecule, the “fold change (FC)” value [10] was 1.01.
With `C[C@H](Cc1nncn1C)c1cccc(NC(=O)c2ccn3nccc3n2)c1` the “fold change (FC)” value [1] was 0.051, the “fold change (FC)” value [2] was “>=1.001” and the “fold change (FC)” value [3] was 2.51. For the same molecule, the “fold change (FC)” value [4] was 0.601, the “fold change (FC)” value [5] was 1.01 and the “fold change (FC)” value [6] was 1.01. For the same molecule, the “fold change (FC)” value [7] was 0.151, the “fold change (FC)” value [8] was 1.01 and the “fold change (FC)” value [9] was 1.01. The “fold change (FC)” value [10] was 1.01.
For `C[C@H](Cc1nncn1C)c1cccc(NC(=O)c2cc(S(N)(=O)=O)cc(C(F)(F)F)n2)c1`, the “fold change (FC)” value [1] was “<=0.05”, the “fold change (FC)” value [2] was “>=1.001” and the “fold change (FC)” value [3] was 1.01. The “fold change (FC)” value [4] was 0.801, the “fold change (FC)” value [5] was 1.01 and the “fold change (FC)” value [6] was “<=1”. For the same molecule, the “fold change (FC)” value [7] was 0.051, the “fold change (FC)” value [8] was 1.01 and the “fold change (FC)” value [9] was “<=1”. For the same molecule, the “fold change (FC)” value [10] was 1.01.
With `C[C@H](Cc1nncn1C)c1cccc(N2Cc3c(cc([C@@H]4CCCNC4)cc3C(F)(F)F)C2=O)c1` the “fold change (FC)” value [1] was 0.101, the “fold change (FC)” value [2] was “>=1.001” and the “fold change (FC)” value [3] was 5. The “fold change (FC)” value [4] was 0.601, the “fold change (FC)” value [5] was 1.31 and the “fold change (FC)” value [6] was 2.51. For the same molecule, the “fold change (FC)” value [7] was “>=0.201”, the “fold change (FC)” value [8] was 1.01 and the “fold change (FC)” value [9] was 5. The “fold change (FC)” value [10] was 1.51.
For `C[C@H](Cc1nncn1C)c1cccc(N2Cc3c(ccnc3C3CCC3)C2=O)c1`, the “fold change (FC)” value [1] was 0.051, the “fold change (FC)” value [2] was “>=1.001” and the “fold change (FC)” value [3] was 5. The “fold change (FC)” value [4] was “>=1.001”, the “fold change (FC)” value [5] was 1.01 and the “fold change (FC)” value [6] was 1.01. For the same molecule, the “fold change (FC)” value [7] was 0.101, the “fold change (FC)” value [8] was “<=1” and the “fold change (FC)” value [9] was 2.51. The “fold change (FC)” value [10] was 1.01.
With `C[C@H](Sc1nnc[nH]1)c1cccc(NC(=O)c2cc3ccccc3cn2)c1` the “fold change (FC)” value [1] was 0.051, the “fold change (FC)” value [2] was “<=0.6” and the “fold change (FC)” value [3] was 1.01. For the same molecule, the “fold change (FC)” value [4] was “<=0.6”, the “fold change (FC)” value [5] was “<=1” and the “fold change (FC)” value [6] was 1.01. For the same molecule, the “fold change (FC)” value [7] was 0.051, the “fold change (FC)” value [8] was “<=1” and the “fold change (FC)” value [9] was 1.01. For the same molecule, the “fold change (FC)” value [10] was “<=1”.
With `Cc1cc(C(=O)Nc2cccc([C@H]3C[C@H]3c3nncn3C)c2)nc(C2CC2)n1` the “fold change (FC)” value [1] was 0.101, the “fold change (FC)” value [2] was “>=1.001” and the “fold change (FC)” value [3] was 5. The “fold change (FC)” value [4] was 0.801, the “fold change (FC)” value [5] was 1.01 and the “fold change (FC)” value [6] was 1.01. The “fold change (FC)” value [7] was “>=0.201”, the “fold change (FC)” value [8] was 1.01 and the “fold change (FC)” value [9] was 2.51. The “fold change (FC)” value [10] was 1.01.
